Measured values as given in ChEMBL document CHEMBL1201862, “PubChem BioAssay data set” (2004).
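How tested: cells in 96-well plates exposed to compound for 48 hours at five concentrations. GI50 marks 50% less growth.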 Calls of active or inactive are those of the source. Cut-off read from the data, not from the text of the source: active = GI50 up to about 1.1 µM and inactive = higher. Where a SMILES comes first, the peptide text is derived from it.

Assays:
Assay in all cases: growth of human tumour cells (NCI), 48 h
BT-549 = test system: BT-549
DLD-1 = test system: DLD-1
DMS-114 = test system: DMS-114
DMS-273 = test system: DMS-273
HOP-18 = test system: HOP-18
LXFL 529 = test system: LXFL 529
SNB-78 = test system: SNB-78
XF498 = test system: XF498

CC(=O)c1c(C)cn(S(=O)(=O)NC(=O)Nc2nncs2)c1C
GI50 (BT-549): > 100 µM (inactive)

Nc1ccccc1OCCCOc1ccccc1N
GI50 (BT-549): > 100 µM (inactive)

C=CCC12CC(=O)CCC1c1ccc(OC)cc1C2=O (configuration not stated)
GI50 (DLD-1): > 100 µM (inactive)
GI50 (DMS-114): > 100 µM (inactive)
GI50 (DMS-273): > 100 µM (inactive)
GI50 (HOP-18): > 100 µM (inactive)
GI50 (LXFL 529): > 100 µM (inactive)
GI50 (SNB-78): > 100 µM (inactive)

Cn1c(=O)c2nc(CSCc3ccccc3)[nH]c2n(C)c1=O
GI50 (BT-549): > 100 µM (inactive)

O=C1NC(NNc2ccccc2)=N/C1=C\c1ccco1
GI50 (BT-549): 21.2 µM (inactive)

CC(C)c1ccc(/C=C2\CSCC3=C2N=C(S)NC3c2ccc(C(C)C)cc2)cc1 (configuration not stated)
GI50 (BT-549): > 100 µM (inactive)

CC1=C(C(=O)NNC(=O)c2ccccc2O)CC(C(=O)NNC(=O)c2ccccc2O)=C(C)N1
GI50 (BT-549): 0.446 µM (active)

S=C(N/N=C(/c1ccccc1)c1ccccn1)Nc1ccc(Cl)cc1
GI50 (BT-549): 3.15 µM (inactive)

O=c1c(Cl)cc2nc3ccccc3sc-2c1Cl
GI50 (BT-549): 11.7 µM (inactive)

Nc1ccc2c(c1)C(=O)c1c(F)cccc1-2
GI50 (BT-549): 39.3 µM (inactive)

COc1ccc(N/N=C(\CCN(C)C)c2ccccc2)cc1
GI50 (DLD-1): 1.66 µM (inactive)
GI50 (DMS-114): 10.9 µM (inactive)
GI50 (DMS-273): 3 µM (inactive)
GI50 (HOP-18): 22.1 µM (inactive)
GI50 (LXFL 529): 1.6 µM (inactive)
GI50 (SNB-78): 12.8 µM (inactive)

CN(C)C(=S)/N=c1\ssc(=S)n1Cc1cccs1
GI50 (BT-549): 11 µM (inactive)
GI50 (DLD-1): 3.82 µM (inactive)
GI50 (DMS-114): 2.15 µM (inactive)
GI50 (HOP-18): 8.89 µM (inactive)
GI50 (LXFL 529): 4.75 µM (inactive)
GI50 (SNB-78): 6.68 µM (inactive)

COc1cc(/C=C2\CCc3cc(OC)c(OC)cc3C2=O)cc(OC)c1
GI50 (BT-549): 10.4 µM (inactive)

Sc1ccc2ccccc2c1CNCc1ccccc1
GI50 (BT-549): 15.8 µM (inactive)

CC1(C)N=C2C(=O)c3c([nH]c4ccccc34)[C@]3(C)CCC1CC23 (some centres not stated)
GI50 (BT-549): > 6.25 µM (inactive)

CC(=O)NC(CS)C(=O)NC(CO)C(=O)NC(CO)C(=O)NC(Cc1c[nH]c2ccccc12)C(=O)N1CCCC1C(=O)NC(CO)C(=O)NC(Cc1c[nH]c2ccccc12)C(=O)NC(Cc1c[nH]cn1)C(=O)NC(CO)C(=O)NC(Cc1c[nH]c2ccccc12)C(=O)NCC(=O)NCC(=O)NC(CC(=O)O)C(=O)NC(CCC(N)=O)C(=O)NC(CCCCN)C(=O)NC(Cc1ccccc1)C(=O)NC(CCCNC(=N)N)C(=O)NC(CCCCN)C(N)=O (configuration not stated) (Ac-CSSWPSWHSWGGDQKFRK-NH2; configuration not given here)
GI50 (BT-549): > 25 µM (inactive)

COCN(C)c1nc(N(C)C)nc(N(C)C)n1
GI50 (DLD-1): > 100 µM (inactive)
GI50 (DMS-114): > 100 µM (inactive)
GI50 (DMS-273): > 100 µM (inactive)
GI50 (HOP-18): 89.3 µM (inactive)
GI50 (LXFL 529): 81.5 µM (inactive)
GI50 (SNB-78): > 100 µM (inactive)

N#CC1(c2nc3ccccc3o2)C(=O)C(=O)N(c2ccc(Cl)c(Cl)c2)C(=O)C1=O
GI50 (DLD-1): > 100 µM (inactive)
GI50 (DMS-273): > 100 µM (inactive)
GI50 (HOP-18): > 100 µM (inactive)
GI50 (LXFL 529): 58.1 µM (inactive)
GI50 (SNB-78): > 100 µM (inactive)
GI50 (XF498): > 100 µM (inactive)

Cc1nnc(N)nc1C/C=C/C(C)Sc1ccc(Cl)cc1 (configuration not stated)
GI50 (BT-549): 5.22 µM (inactive)

C=C(C)C1(Sc2ccc(OC)cc2)CC1
GI50 (BT-549): 17.1 µM (inactive)

C=CCC1(O)c2cccc(O)c2C(=O)c2c(O)cccc21
GI50 (BT-549): 29.6 µM (inactive)

Cc1c(Br)c(Br)c(C)[s+]1[O-]
GI50 (BT-549): 16.3 µM (inactive)

CC(C)(CCc1nc2ccccc2[nH]1)C(=O)O
GI50 (BT-549): > 100 µM (inactive)

C=C1C(=O)O[C@H]2[C@@H](O)[C@H](C)CCC/C(C)=C/CC[C@@]3(C)O[C@@H]3C[C@@H]12
GI50 (BT-549): 3.3 µM (inactive)

C/C(CC(O)(/C=N/O)c1ccccc1)=N/O (configuration not stated)
GI50 (BT-549): > 100 µM (inactive)

COc1ccc(NC(=S)N/N=C(\c2ccccc2)c2ccccn2)cc1
GI50 (BT-549): 4.94 µM (inactive)

CCCCNC(=S)N/N=C/c1cccc(C)n1
GI50 (BT-549): 49.4 µM (inactive)

CCOC(=O)N[C@@H]1C2CC(=O)C(O2)[C@@H]1OC (some centres not stated)
GI50 (DLD-1): > 100 µM (inactive)
GI50 (HOP-18): > 100 µM (inactive)
GI50 (SNB-78): > 100 µM (inactive)

Cc1cnc2c(c1)C(=O)C1=C(C2=O)C2OC(=O)CC2OC1(C)C (configuration not stated)
GI50 (BT-549): 0.185 µM (active)

COC(=O)C(Cc1nc2ccccc2nc1O)C(=O)C(=O)Nc1ccc(OC)cc1[N+](=O)[O-] (configuration not stated)
GI50 (LXFL 529): > 100 µM (inactive)
GI50 (SNB-78): > 100 µM (inactive)
GI50 (XF498): > 100 µM (inactive)

CC(C)=CC1C(COC(=O)c2ccccc2Cl)C1(C)C (configuration not stated)
GI50 (BT-549): 33.5 µM (inactive)

COc1cccc(/N=C/c2cc(OC)c(OC)c(OC)c2)c1
GI50 (BT-549): 72.6 µM (inactive)

C[C@]12CC[C@H](O)CC1=CC[C@@H]1C2CC[C@]2(C)c3n[nH]nc3CC12 (some centres not stated)
GI50 (BT-549): > 100 µM (inactive)

O=c1oc2ccccc2cc1-c1nc2ccccc2s1
GI50 (BT-549): 17.2 µM (inactive)

O=C(NCCc1ccccc1)c1cc(/C=C/c2cc(O)ccc2O)ccc1O
GI50 (BT-549): 1.78 µM (inactive)

COc1ccc2c(c1)CC[C@@H]1C2CC[C@]2(C)C(=O)N(C)C(=O)CC12 (some centres not stated)
GI50 (BT-549): > 100 µM (inactive)

C/C(=N/NC(=S)Nc1cccc(C)c1)c1ccccn1
GI50 (BT-549): 3.87 µM (inactive)

Cn1c2ccccc2c2c3c(=O)[nH][nH]c(=O)c3c3c4ccccc4n(C)c3c21
GI50 (BT-549): > 100 µM (inactive)

CCCCc1c2c(nc3c1CCc1cc4c(nc1-3)-c1nc3c(c(CCCC)c1CC4)CCC/C3=C\c1ccccc1)/C(=C/c1ccccc1)CCC2
GI50 (DLD-1): > 100 µM (inactive)
GI50 (DMS-114): 47.5 µM (inactive)
GI50 (DMS-273): 35.2 µM (inactive)
GI50 (LXFL 529): 30.8 µM (inactive)
GI50 (SNB-78): 39.4 µM (inactive)
GI50 (XF498): 32.5 µM (inactive)

CC12CCC(=O)C=C1CCC1C2CCC2(C)C(C(=O)Cn3cnc4c(=S)nc[nH]c43)CCC12 (configuration not stated)
GI50 (BT-549): 28.4 µM (inactive)

COC(=O)c1c([N+](=O)[O-])ncn1[C@H]1OC[C@@H](OC(C)=O)[C@@H](OC(C)=O)[C@@H]1OC(C)=O
GI50 (BT-549): > 100 µM (inactive)

CS(=O)(=O)N1CC(CCl)c2ccc(NO)cc21 (configuration not stated)
GI50 (BT-549): 12 µM (inactive)

CC(=O)OC1=C2CC[C@@H]3C(CC[C@@]4(C)C3CC[C@@H]4OC(C)=O)[C@@]2(C)CC(C#N)C1=O (some centres not stated)
GI50 (DLD-1): 9.82 µM (inactive)
GI50 (DMS-114): 17.8 µM (inactive)
GI50 (DMS-273): 20.9 µM (inactive)
GI50 (LXFL 529): 30 µM (inactive)
GI50 (SNB-78): 26.8 µM (inactive)
GI50 (XF498): 18.6 µM (inactive)

C=C(C)[C@@]1(O)CCC[C@H]1NC(=O)OC(C)(C)C
GI50 (BT-549): > 100 µM (inactive)

Cc1ccc2ccccc2c1CC1S(=O)(=O)OCCOS1(=O)=O
GI50 (BT-549): 11.2 µM (inactive)

Cc1ccc(NC(=O)CC(=O)N2N=C(N(CCC#N)c3cccc(C)c3)CC2c2ccccc2)cc1 (configuration not stated)
GI50 (DLD-1): > 100 µM (inactive)
GI50 (DMS-114): > 100 µM (inactive)
GI50 (DMS-273): > 100 µM (inactive)
GI50 (HOP-18): > 100 µM (inactive)
GI50 (LXFL 529): > 100 µM (inactive)
GI50 (SNB-78): > 100 µM (inactive)

Fc1ccccc1-c1cc(S)c2cc3c(cc2n1)OCO3
GI50 (BT-549): 61 µM (inactive)

Cn1c(=O)c2c(nc3n(CC(O)CCl)c(=O)ccn23)n(C)c1=O (configuration not stated)
GI50 (BT-549): > 100 µM (inactive)

Cc1ccc(NC(=O)C(=O)C(C#N)c2nc(-c3ccc(-c4ccccc4)cc3)cs2)c(C)c1 (configuration not stated)
GI50 (DLD-1): > 100 µM (inactive)
GI50 (DMS-114): > 100 µM (inactive)
GI50 (DMS-273): 39.6 µM (inactive)
GI50 (HOP-18): > 100 µM (inactive)
GI50 (LXFL 529): > 100 µM (inactive)
GI50 (SNB-78): > 100 µM (inactive)

CC(=O)O[C@H]1CC(C)(C)C(=C=C/C(C)=C/C=C/C=C/C=C(C)/C=C2C=C(/C=C/[C@@]34O[C@]3(C)C[C@@H](O)CC4(C)C)C(=O)O/2)[C@](C)(O)C1
GI50 (BT-549): 2.51 µM (inactive)

COc1ccc(NC(=O)C(=O)Cc2nc3ccc(C(=O)c4ccccc4)cc3nc2O)c([N+](=O)[O-])c1
GI50 (BT-549): 26.9 µM (inactive)

CCOc1ccc2nc(NC(=O)C(=O)C(c3cnc4ccccc4n3)[N+](=O)[O-])sc2c1 (configuration not stated)
GI50 (BT-549): > 100 µM (inactive)

Cc1cc2nc3[nH]c4c(Cl)cc(Cl)cc4c3nc2cc1C
GI50 (BT-549): 98.4 µM (inactive)
